pIC50: −log10 of the molar value.
Legend:
[1] = test system: Human immunodeficiency virus 1; assay: Antiviral activity against HIV1 cYTA48P infected in PM1/CCR5 cells by single round assay; format: functional, organism-based; conditions: Human immunodeficiency virus 1, cYTA48P
[2] = Cytotoxicity against human PM1 cells harboring CCR5 co-receptor by WST-8 assay; format: cell-based
[3] = target: Envelope glycoprotein gp160 (Human immunodeficiency virus 1) (UniProt Q6QLK5); assay: Induction of conformational changes in HIV1 cYTA48P envelope glycoprotein gp120 infected in PM1/CCR5 cells assessed as mean fluorescence intensity using CD4i monoclonal antibody 4C11 at 100 uM after 15 mins by FACS analysis; format: cell-based
[4] = target: Envelope glycoprotein gp160 (Human immunodeficiency virus 1) (UniProt Q6QLK5); assay: Induction of conformational changes in HIV1 cYTA48P envelope glycoprotein gp120 infected in PM1/CCR5 cells assessed as mean fluorescence intensity using CD4i monoclonal antibody 4C11 at 100 uM after 15 mins by FACS analysis relative to NBD-556; format: cell-based
[5] = test system: Human immunodeficiency virus 1; assay: Antiviral activity against HIV1 cYTA48P infected in PM1/CCR5 cells at 10 uM by single round assay; format: functional

Chain of Envelope glycoprotein gp160 (Human immunodeficiency virus 1) (Q6QLK5 1-814): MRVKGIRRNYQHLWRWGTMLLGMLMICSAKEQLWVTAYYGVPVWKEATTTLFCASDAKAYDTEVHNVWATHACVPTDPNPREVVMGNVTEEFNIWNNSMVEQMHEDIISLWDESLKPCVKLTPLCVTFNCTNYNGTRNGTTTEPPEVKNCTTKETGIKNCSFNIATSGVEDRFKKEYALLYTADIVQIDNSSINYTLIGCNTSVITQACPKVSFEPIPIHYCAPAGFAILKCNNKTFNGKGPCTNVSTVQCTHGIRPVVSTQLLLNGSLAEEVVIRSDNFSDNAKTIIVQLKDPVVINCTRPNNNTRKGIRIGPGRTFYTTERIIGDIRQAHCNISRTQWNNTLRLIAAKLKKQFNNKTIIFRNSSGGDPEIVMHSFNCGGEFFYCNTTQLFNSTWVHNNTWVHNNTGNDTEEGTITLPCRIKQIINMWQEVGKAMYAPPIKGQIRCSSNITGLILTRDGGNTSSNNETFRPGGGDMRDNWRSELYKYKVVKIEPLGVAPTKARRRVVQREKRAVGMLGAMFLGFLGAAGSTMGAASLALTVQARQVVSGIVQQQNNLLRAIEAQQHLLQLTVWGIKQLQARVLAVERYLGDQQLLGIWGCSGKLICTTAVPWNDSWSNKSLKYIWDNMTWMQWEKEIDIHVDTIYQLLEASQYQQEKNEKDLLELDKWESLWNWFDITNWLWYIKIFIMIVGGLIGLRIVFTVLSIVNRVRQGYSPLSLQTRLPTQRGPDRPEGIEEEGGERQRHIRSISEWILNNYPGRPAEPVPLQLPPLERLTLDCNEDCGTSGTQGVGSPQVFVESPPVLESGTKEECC

SMILES | pIC50 [1] | CC50 [2] [µM] | Flu intensity [3] | fold change (FC) [4] | Activity [5] [%]
Cc1cc(C)c2cc(C(=O)NC3CC4(CCCCC4)NC4(CCCCC4)C3)[nH]c2c1 (centres undefined) | < 4.00 | 9.6 | 5.27 |  | 
CC1(C)CC(NC(=O)C(=O)Nc2ccc(Cl)cc2)CC(C)(C)N1 | 6.20 | 70.4 | 8.91 |  | 
O=C(NC1CC2(CCCCC2)NC2(CCCCC2)C1)c1cc2c(F)c(Cl)ccc2[nH]1 (centres undefined) | 5.44 | 11.4 | 8.05 | 0.25 | 
O=C(CNc1ccc2c(c1)OCO2)NC1CC2(CCCCC2)NC2(CCCCC2)C1 (centres undefined) | 4.97 |  | 28.7 | 0.19 | 
Cc1cc(C)c2cc(C(=O)NC3CC(C)(C)NC(C)(C)C3)n(C)c2c1 | < 4.00 | > 37.5 | 7.61 |  | 
CCOC(=O)C1CCN(C(=O)c2cc3cc4c(cc3[nH]2)OCO4)CC1 | 4.20 |  | 26.2 | 0.13 | 
CCOC(=O)C1CCN(C(=O)c2cc3c(F)c(Cl)ccc3n2C)CC1 | < 4.00 | > 63.5 | 8.63 | 0.76 | 
Cn1c(C(=O)NC2CC3(CCCCC3)NC3(CCCCC3)C2)cc2cc(F)c(Cl)cc21 (centres undefined) | < 4.00 | 29.4 |  |  | 
CCOC(=O)C1CCN(C(=O)c2cc3c(F)c(Cl)ccc3[nH]2)CC1 | < 4.00 | > 200 | 8.24 | 0.42 | 
CC1(C)CC(NC(=O)c2cc3cc(F)c(Cl)cc3[nH]2)CC(C)(C)N1 | 4.05 | 103 |  |  | 
CC1(C)CC(NC(=O)c2cc3ccc(Cl)cc3[nH]2)CC(C)(C)N1 | < 4.00 | 37.4 |  |  | 
CCOC(=O)C1CCN(C(=O)CNc2ccc(Cl)cc2)CC1 | < 4.00 |  | 23.8 | 0.081 | 
CCOC(=O)C1CCN(C(=O)c2cc3ccc(Cl)cc3[nH]2)CC1 | < 4.00 | 52.6 |  |  | 
CCOC(=O)C1CCN(C(=O)CNc2ccc3c(c2)OCO3)CC1 | < 4.00 |  | 18.5 |  | 
CCOC(=O)C1CCN(C(=O)c2cc3c(C)cc(C)cc3[nH]2)CC1 | < 4.00 | > 200 | 8.14 | 0.33 | 
CC1(C)CC(NC(=O)c2cc3c(F)c(Cl)ccc3[nH]2)CC(C)(C)N1 | < 5.00 | 19.4 | 8.55 | 0.68 | 32
CC1(C)CC(NC(=O)c2cc3cc4c(cc3[nH]2)OCO4)CC(C)(C)N1 | 4.64 |  | 30.7 | 0.23 | 
CCOC(=O)C1CCN(C(=O)c2cc3ccc(Cl)cc3n2C)CC1 | < 4.00 | 78.4 |  |  | 

SMILES | pIC50 [1] | CC50 [2] [µM] | Flu intensity [3] | fold change (FC) [4] | Activity [5] [%]
O=C(CNc1ccc(Cl)cc1)NC1CC2(CCCCC2)NC2(CCCCC2)C1 (centres undefined) | 5.66 | > 100 | 19.6 |  | 
CCOC(=O)C1CCN(C(=O)c2cc3cc(F)c(Cl)cc3n2C)CC1 | < 4.00 | 41.1 |  |  | 
O=C(NC1CC2(CCCCC2)NC2(CCCCC2)C1)c1cc2cc3c(cc2[nH]1)OCO3 (centres undefined) | 6.00 | > 100 | 36.4 | 0.36 | 
Cc1cc(C)c2cc(C(=O)NC3CC4(CCCCC4)NC4(CCCCC4)C3)n(C)c2c1 (centres undefined) | < 4.00 | > 13.5 | 7.96 | 0.17 | 
CCOC(=O)C1CCN(C(=O)c2cc3cc(F)c(Cl)cc3[nH]2)CC1 | < 4.00 | 121 |  |  | 
O=C(NC1CC2(CCCCC2)NC2(CCCCC2)C1)c1cc2ccc(Cl)cc2[nH]1 (centres undefined) | < 4.00 | 10.7 |  |  | 11
Cn1c(C(=O)NC2CC(C)(C)NC(C)(C)C2)cc2cc(F)c(Cl)cc21 | < 4.00 | 18.7 |  |  | 
Cn1c(C(=O)NC2CC3(CCCCC3)NC3(CCCCC3)C2)cc2c(F)c(Cl)ccc21 (centres undefined) | < 4.00 | 12.3 | 6.45 |  | 
Cn1c(C(=O)NC2CC(C)(C)NC(C)(C)C2)cc2c(F)c(Cl)ccc21 | < 4.00 | 13.9 | 6.74 |  | 32
CC1(C)CC(NC(=O)c2cc3cc(Cl)ccc3[nH]2)CC(C)(C)N1 | 5.44 | 48.6 | 8.7 | 0.82 | 
Cn1c(C(=O)NC2CC(C)(C)NC(C)(C)C2)cc2cc(Cl)ccc21 | < 4.00 | 37.5 | 6.65 |  | 
Cc1cc(C)c2cc(C(=O)NC3CC(C)(C)NC(C)(C)C3)[nH]c2c1 | < 4.00 | 60.3 | 8.08 | 0.28 | 
CC1(C)CC(NC(=O)CNc2ccc3c(c2)OCO3)CC(C)(C)N1 | < 4.52 |  | 23.4 | 0.073 | 
O=C(NC1CC2(CCCCC2)NC2(CCCCC2)C1)c1cc2cc(F)c(Cl)cc2[nH]1 (centres undefined) | < 4.00 | 11.3 |  |  | 
CCOC(=O)C1CCN(C(=O)c2cc3c(C)cc(C)cc3n2C)CC1 | < 4.00 | > 50.2 | 8.11 | 0.3 | 
Cn1c(C(=O)NC2CC3(CCCCC3)NC3(CCCCC3)C2)cc2ccc(Cl)cc21 (centres undefined) | < 4.00 | 33.9 |  |  | 
Cn1c(C(=O)NC2CC(C)(C)NC(C)(C)C2)cc2ccc(Cl)cc21 | < 4.00 | 33.2 |  |  | 27
CC1(C)CC(NC(=O)CNc2ccc(Cl)cc2)CC(C)(C)N1 | 4.43 |  | 30.2 | 0.22 | 
